Consider 7 molecules from patent US12410191B2, “Macrolide derivatives, preparation method and application thereof” (ZHEJIANG HISUN PHARMACEUTICAL CO., LTD., priority 2019, dated 2025).

For data set [1] the following is noted: amide bond, pentafluorophenyl diphenylphosphinate (FDPP), dichloromethane, 25.0 °C.
Data set [2] in a line: Pharmacokinetic study on ICR mice. The data set is classed as in vivo. As for the experimental part: ICR mice, male, 29.0 g to 33.8g, purchased from Beijing Charles River Laboratory Animal Technology Co., Ltd.
Intravenous injection group: an appropriate amount of drug was weighed, and added with mixed solvent (DMA: 30% Solutol HS-15: Saline=10:10:80 (v/v/v)) to prepare the drug with a final concentration of 0.2 mg/mL.
Oral gavage administration group: an appropriate amount of drug was weighed, added with an appropriate amount of sodium carboxymethyl cellulose (CMC-Na, containing 0.5% Tween 80), vortex shaked, and ultrasonically prepared into […] suspension.
For ICR mice, each compound to be tested was divided into an intravenous injection group (9 mice in each group) and an intragastric group (9 mice in each group). The ICR mice were fasted overnight and then administered by orbital intravenous injection (administration dose of 1 mg/kg, and administration volume of 5 mL/kg) and administered by intragastric injection (administration dose of 5 mg/kg, and administration volume of 10 mL/kg), and ate 4 hours after administration. 3. Operation
About 0.2 mL of blood was collected via jugular vein before administration and 0.083 hour, 0.25 hour, 0.5 hour, 1 hour, 2 hours, 4 hours, 8 hours, 12 hours and 24 hours after administration, and heparin sodium was used for anticoagulation. The collected blood samples were placed on ice, and plasma was separated by centrifugation (centrifugation condition: 1500 g, 10 minutes). The collected plasma was stored at −40° C. to −20° C. before analysis.
LC-MS/MS was used to determine the contents of different compounds to be tested in mouse plasma after intravenous injection and intragastric administration.

The structures appear in SMILES notation. Like-named read-outs stand apart in the source and are kept apart here.

Turning to `C[C@H]1Nc2ccn3ncc(c3n2)C(=O)NCC[C@@]2(C)Cc3cc(F)cc1c3O2`, the ring closure, yield of all isomers in data set [1] (from C[C@@H](Nc1ccn2ncc(C(=O)O)c2n1)c1cc(F)cc2c1O[C@@](C)(CCN)C2, N,N-diisopropylethylamine, 131.0 mM) came out at 18.2%. Consider `C[C@H]1Nc2ccn3ncc(c3n2)C(=O)NCCC2=Cc3cc(F)cc1c3O2`, for which, in data set [1] (from C[C@@H](Nc1ccn2ncc(C(=O)O)c2n1)c1cc(F)cc2cc(CCN)oc12, DIPEA, 172.8 mM, 16.0 h), the ring closure, yield of all isomers stood at 25.4%. Take `C[C@H]1Nc2ccn3ncc(c3n2)C(=O)NC[C@@]2(C)Cc3cc(F)cc1c3O2` [Example 8, (3R,11R)-6-fluoro-3,11-dimethyl-10-oxa-2,13,17,18,21-pentaazapentacyclo[13.5.2.1^8,11.0^4,9.0^18,22]tricosa-1(21),4,6,8,15(22),16,19-heptaen-14-one]: in data set [1] (from C[C@@H](Nc1ccn2ncc(C(=O)O)c2n1)c1cc(F)cc2c1O[C@@](C)(CN)C2, N,N-diisopropylethylamine, 172.0 mM), the ring closure, yield of all isomers was 26.3%. In data set [2], the “bioavailability relative to repotrectinib” value amounted to 4.1 times. Besides, in data set [2] (5 mg/kg oral), the “AUC0-∞ relative to repotrectinib” value is recorded as 10.6 times and the “Cmax relative to repotrectinib” value stood at 14.7 times. `C[C@H]1Nc2ccn3ncc(c3n2)C(=O)NC[C@]2(C)Cc3cc(F)cc1c3O2` had a ring closure, yield of all isomers in data set [1] (from C[C@@H](Nc1ccn2ncc(C(=O)O)c2n1)c1cc(F)cc2c1O[C@](C)(CN)C2, N,N-diisopropylethylamine, 231.0 mM) of 17.6%. In the case of `C[C@H]1Nc2ccn3ncc(c3n2)C(=O)NC[C@@H]2COc3cc(F)cc1c3O2`, in data set [1] (from C[C@@H](Nc1ccn2ncc(C(=O)O)c2n1)c1cc(F)cc2c1O[C@H](CN)CO2, DIPEA, 215.1 mM, 16.0 h), the ring closure, yield of all isomers was 42%. In data set [1] (from C[C@@H](Nc1ccn2ncc(C(=O)O)c2n1)c1cc(F)cc2c1OC(CCN)C2, DIPEA, 33.0 mM, 16.0 h, 2 steps), `C[C@H]1Nc2ccn3ncc(c3n2)C(=O)NCC[C@H]2Cc3cc(F)cc1c3O2` returned a ring closure, yield of all isomers of 23.1%.

`C[C@H]1Nc2ccn3ncc(c3n2)C(=O)NCC2(C)Cc3cc(F)cc1c3O2` (stereo partly shown): the ring closure, yield of all isomers in data set [1] (from C[C@@H](Nc1ccn2ncc(C(=O)O)c2n1)c1cc(F)cc2c1OC(C)(CN)C2, DIPEA, 154.8 mM, 16.0 h) came to 5.9%.
